The compounds below were run against Poly [ADP-ribose] polymerase 1 (Mus musculus) (UniProt P11103) (assay: Percent inhibition of poly(ADP-ribose) polymerase-1 (PARP-1) in mouse using Cell protection assay at 10 uM).
Poly [ADP-ribose] polymerase 1 (Mus musculus), sequence (P11103 whole entry): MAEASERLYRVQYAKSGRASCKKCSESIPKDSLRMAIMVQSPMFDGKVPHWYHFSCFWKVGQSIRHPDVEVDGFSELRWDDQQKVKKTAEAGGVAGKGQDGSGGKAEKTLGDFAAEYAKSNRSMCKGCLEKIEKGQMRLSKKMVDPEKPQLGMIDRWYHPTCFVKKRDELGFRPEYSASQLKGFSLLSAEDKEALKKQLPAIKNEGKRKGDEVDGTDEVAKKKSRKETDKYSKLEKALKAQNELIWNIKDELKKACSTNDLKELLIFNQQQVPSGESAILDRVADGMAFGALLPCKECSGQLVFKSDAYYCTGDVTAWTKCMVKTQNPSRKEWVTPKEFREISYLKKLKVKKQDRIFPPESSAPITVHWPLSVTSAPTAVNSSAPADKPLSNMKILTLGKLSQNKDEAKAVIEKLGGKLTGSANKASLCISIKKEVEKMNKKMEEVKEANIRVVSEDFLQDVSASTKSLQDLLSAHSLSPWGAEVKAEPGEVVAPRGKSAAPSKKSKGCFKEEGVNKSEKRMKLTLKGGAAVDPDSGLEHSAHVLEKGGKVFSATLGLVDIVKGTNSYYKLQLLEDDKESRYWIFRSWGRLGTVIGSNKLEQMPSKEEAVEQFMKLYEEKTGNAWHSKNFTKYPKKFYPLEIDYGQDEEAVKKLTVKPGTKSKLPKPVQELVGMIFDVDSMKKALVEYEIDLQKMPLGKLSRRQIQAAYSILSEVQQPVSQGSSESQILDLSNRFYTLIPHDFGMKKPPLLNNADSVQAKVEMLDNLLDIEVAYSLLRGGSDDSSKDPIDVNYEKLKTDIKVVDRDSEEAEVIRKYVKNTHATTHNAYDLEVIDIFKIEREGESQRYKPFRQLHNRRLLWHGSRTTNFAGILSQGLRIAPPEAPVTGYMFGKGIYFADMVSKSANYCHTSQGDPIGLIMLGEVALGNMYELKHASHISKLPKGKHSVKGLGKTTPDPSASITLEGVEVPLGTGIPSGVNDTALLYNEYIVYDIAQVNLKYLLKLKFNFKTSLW

| inhibition [%] | SMILES |
| --- | --- |
| 33 | O=C1N=Cc2ccccc21 |
| 51 | Nc1ncnc2c1ncn2C1O[C@H](CNC(=O)/C=C/c2ccc(C(=O)Nc3cccc4c3CNC4=O)cc2)[C@@H](O)[C@H]1O (some centres undefined) |
| 30 | O=C(CCCCCCC(=O)Nc1cccc2c1CNC2=O)NC[C@H]1OC(n2cnc3c(O)ncnc32)[C@H](O)[C@@H]1O (some centres undefined) |
| 52 | NC(=O)c1cccc(NC(=O)CCC(=O)NCC2OC(n3cnc4c(N)ncnc43)[C@H](O)[C@@H]2O)c1 (some centres undefined) |

From ChEMBL document CHEMBL1146715, “The discovery and synthesis of novel adenosine substituted 2,3-dihydro-1H-isoindol-1-ones: potent inhibitors of poly(ADP-ribose) polymerase-1 (PARP-1)” (Bioorg Med Chem Lett, 2004)
